# Measurements from patent EP4775574A1, “FURAN RING-CONTAINING COMPOUND, PHARMACEUTICAL COMPOSITION THEREOF, AND USE THEREOF” (Wuhan Xirui Pharmaceutical Technology Co., Ltd, priority 2023, dated 2025).
# Read-outs that look alike come from different tables or passages of the source.
# Tests used:
# Nav1.1 = Nav1.1 (Homo sapiens, UniProt P35498); assay: Sodium channel selectivity test, patch-clamp, Nav1.1; type: cell-based; conditions: read-out: Nav1.1 Inhibition rate (%)
# Source text: (§1) Test Example 3: Selectivity test of the compounds of the present disclosure on sodium channels • 1. Experimental objective: The effects of the compounds on the current of the voltage-gated sodium channel (NaV) subtypes 1.1-1.7 were detected by patch-clamp technique • 2. Experimental materials and instruments • 2.1 Cell lines: CHO/HEK293 cell lines stably expressing Nav1.1-1.7 sodium channels, constructed in-house by the laboratory of Beijing ICE Bioscience Co., Ltd., (Reference: Jarvis MF, Honore P, Shieh CC, Chapman M, Joshi S, Zhang XF, Kort M, Carroll W, Marron B, Atkinson R, Thomas J, Liu D, Krambis M, Liu Y, McGaraughty S, Chu K, Roeloffs R, Zhong C, Mikusa JP, Hernandez G, Gauvin D, Wade C, Zhu C, Pai M, Scanio M, Shi L, Drizin I, Gregg R, Matulenko M, Hakeem A, Gross M, Johnson M, Marsh K, Wagoner PK, Sullivan JP, Faltynek CR, Krafte DS. A-803467, a potent and selective Nav1.8 sodium channel blocker, attenuates neuropathic and inflammatory pain in the rat. Proc Natl Acad Sci U S A. 2007 May 15;104(20):8520-5. doi: 10.1073/pnas.0611364104. Epub 2007 May 2. PMID: 17483457; PMCID: PMC1895982.), gene information Nav1.1: NM_006920; Nav1.2: NM_001040142; Nav1.3: NM_006922; Nav1.4: NM_000334; Nav1.5: NM198056; Nav1.6: NM014191; Nav1.7: […]. • 2.2 Compounds: Dissolved in DMSO, with sample concentration prepared at 30 µM. • 3. Experimental methods • 3.1 Cell culture • (1) Maintenance medium: CHO cells were cultured in HAM'S/F-12 medium containing 10% fetal bovine serum, 100 µg/mL Zeocin, and 10 µg/mL Blasticidin, under conditions of 37°C incubation temperature and 5% carbon dioxide concentration. HEK-293 cells were cultured in DMEM medium containing 10% fetal bovine serum and 800 µg/mL G418; the culture temperature was 37°C, and the carbon dioxide concentration was 5%. • (2) Cell passage: The old medium was removed, and the cells were washed once with PBS, then 1 mL of 0.25%-Trypsin-EDTA solution was added and incubated at 37°C for approximately 1.5 min. When the cells were detached from the bottom of the dish, about 5 mL of preheated complete medium at 37°C was added. […]
# Nav1.3 = Nav1.3 (Homo sapiens, UniProt Q9NY46); assay: Sodium channel selectivity test, patch-clamp, Nav1.3; type: cell-based; conditions: read-out: Nav1.3 Inhibition rate (%)
# Source text: as §1
# Nav1.4 = Nav1.4 (Homo sapiens, UniProt P35499); assay: Sodium channel selectivity test, patch-clamp, Nav1.4; type: cell-based; conditions: read-out: Nav1.4 Inhibition rate (%)
# Nav1.4, sequence (P35499 whole entry): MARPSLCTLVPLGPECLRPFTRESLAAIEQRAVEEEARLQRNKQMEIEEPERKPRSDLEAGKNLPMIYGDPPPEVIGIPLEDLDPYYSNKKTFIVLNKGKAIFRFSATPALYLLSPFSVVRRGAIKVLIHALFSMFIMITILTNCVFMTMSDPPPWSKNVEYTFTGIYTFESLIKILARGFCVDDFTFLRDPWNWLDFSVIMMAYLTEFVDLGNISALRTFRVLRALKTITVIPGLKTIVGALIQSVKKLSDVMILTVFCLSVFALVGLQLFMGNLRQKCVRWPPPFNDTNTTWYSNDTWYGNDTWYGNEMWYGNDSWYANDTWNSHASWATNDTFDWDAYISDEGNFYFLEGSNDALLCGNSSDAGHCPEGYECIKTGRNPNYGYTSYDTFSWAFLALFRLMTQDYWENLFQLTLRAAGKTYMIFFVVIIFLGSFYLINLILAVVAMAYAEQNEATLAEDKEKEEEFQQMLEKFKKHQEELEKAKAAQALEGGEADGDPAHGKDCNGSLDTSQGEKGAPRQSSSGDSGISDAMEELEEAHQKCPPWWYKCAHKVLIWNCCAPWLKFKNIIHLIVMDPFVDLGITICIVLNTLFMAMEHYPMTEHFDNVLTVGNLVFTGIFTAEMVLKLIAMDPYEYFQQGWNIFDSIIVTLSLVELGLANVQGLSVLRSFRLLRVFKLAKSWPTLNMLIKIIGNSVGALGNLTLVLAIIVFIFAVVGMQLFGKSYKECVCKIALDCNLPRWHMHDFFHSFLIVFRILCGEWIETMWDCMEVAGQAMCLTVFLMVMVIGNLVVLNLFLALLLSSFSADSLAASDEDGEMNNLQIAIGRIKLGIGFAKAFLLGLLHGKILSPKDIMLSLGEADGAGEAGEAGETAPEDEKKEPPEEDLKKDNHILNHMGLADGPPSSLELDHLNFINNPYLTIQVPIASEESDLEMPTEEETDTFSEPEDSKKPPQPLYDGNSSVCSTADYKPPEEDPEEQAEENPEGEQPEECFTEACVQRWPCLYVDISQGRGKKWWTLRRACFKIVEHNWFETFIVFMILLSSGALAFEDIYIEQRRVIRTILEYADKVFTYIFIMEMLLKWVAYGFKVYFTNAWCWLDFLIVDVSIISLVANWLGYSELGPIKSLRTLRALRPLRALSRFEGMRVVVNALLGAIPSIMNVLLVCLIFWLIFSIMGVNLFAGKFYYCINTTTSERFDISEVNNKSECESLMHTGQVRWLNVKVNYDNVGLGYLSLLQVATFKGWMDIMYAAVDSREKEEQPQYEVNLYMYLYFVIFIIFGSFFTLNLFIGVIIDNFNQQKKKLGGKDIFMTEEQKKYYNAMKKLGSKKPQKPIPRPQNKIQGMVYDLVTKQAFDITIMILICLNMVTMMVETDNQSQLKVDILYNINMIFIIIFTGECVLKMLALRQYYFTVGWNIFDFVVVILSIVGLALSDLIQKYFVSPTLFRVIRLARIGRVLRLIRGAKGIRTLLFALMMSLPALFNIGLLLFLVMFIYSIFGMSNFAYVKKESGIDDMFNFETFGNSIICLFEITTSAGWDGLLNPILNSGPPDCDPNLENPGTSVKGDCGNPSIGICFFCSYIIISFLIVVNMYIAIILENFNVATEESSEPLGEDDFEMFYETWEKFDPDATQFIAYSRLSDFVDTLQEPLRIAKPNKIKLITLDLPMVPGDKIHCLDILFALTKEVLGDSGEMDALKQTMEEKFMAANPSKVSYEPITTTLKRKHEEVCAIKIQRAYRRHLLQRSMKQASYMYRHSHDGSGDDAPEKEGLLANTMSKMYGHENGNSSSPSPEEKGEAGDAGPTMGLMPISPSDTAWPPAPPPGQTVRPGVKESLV
# Source text: as §1
# Nav1.5 = Nav1.5 (Homo sapiens, UniProt Q14524); assay: Sodium channel selectivity test, patch-clamp, Nav1.5; type: cell-based; conditions: read-out: Nav1.5 Inhibition rate (%)
# Nav1.5, sequence (Q14524 whole entry): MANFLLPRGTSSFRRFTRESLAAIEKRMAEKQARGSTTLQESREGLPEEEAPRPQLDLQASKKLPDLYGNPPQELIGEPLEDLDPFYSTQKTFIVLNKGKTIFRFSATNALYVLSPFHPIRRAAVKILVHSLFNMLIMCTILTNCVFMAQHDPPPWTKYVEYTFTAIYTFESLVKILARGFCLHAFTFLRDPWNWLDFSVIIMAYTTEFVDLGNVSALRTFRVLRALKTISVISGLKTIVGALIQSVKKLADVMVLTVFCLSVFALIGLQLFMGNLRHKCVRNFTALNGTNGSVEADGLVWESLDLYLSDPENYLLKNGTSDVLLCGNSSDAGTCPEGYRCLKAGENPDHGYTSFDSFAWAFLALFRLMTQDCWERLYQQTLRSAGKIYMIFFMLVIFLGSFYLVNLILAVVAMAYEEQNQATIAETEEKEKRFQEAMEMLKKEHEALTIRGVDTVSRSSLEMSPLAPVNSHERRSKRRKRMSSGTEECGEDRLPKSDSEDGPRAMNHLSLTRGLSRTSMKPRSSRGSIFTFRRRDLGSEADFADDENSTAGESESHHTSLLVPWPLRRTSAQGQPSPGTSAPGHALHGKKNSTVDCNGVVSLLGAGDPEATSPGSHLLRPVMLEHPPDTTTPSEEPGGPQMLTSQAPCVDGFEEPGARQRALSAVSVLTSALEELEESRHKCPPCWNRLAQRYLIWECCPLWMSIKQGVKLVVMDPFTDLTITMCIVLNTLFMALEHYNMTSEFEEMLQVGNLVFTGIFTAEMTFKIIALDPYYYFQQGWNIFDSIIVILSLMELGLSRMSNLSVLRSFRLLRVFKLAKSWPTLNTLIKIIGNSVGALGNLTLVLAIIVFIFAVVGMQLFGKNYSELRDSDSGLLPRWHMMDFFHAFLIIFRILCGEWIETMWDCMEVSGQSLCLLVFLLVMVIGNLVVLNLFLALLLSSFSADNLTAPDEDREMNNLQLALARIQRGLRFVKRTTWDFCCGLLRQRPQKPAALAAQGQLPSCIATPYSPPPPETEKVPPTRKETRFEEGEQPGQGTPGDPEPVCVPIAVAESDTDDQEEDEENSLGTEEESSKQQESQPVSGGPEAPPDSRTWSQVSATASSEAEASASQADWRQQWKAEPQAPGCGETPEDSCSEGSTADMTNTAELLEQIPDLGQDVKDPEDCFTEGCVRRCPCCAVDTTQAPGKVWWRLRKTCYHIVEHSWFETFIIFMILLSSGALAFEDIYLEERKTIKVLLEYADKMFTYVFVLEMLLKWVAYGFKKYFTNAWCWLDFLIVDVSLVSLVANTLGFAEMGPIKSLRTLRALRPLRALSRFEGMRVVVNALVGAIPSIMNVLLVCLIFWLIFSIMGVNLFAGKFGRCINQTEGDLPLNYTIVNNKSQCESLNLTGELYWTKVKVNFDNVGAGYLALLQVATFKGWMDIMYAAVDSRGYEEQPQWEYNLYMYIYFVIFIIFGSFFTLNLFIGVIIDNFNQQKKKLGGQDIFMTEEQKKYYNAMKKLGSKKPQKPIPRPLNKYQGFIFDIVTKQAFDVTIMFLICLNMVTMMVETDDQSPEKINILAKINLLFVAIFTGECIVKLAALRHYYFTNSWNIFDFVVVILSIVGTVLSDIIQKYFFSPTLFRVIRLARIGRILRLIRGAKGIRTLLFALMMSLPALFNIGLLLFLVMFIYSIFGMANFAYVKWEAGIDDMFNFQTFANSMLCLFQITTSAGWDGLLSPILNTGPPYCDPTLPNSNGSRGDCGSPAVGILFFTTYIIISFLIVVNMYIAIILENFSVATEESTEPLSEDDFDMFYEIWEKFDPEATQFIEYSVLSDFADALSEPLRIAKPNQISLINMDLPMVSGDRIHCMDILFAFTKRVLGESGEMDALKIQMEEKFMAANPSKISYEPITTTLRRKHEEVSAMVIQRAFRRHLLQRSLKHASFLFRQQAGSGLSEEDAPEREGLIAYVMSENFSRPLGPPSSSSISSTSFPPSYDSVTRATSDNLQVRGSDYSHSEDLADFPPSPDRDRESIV
# Source text: as §1
# [1] = Pharmacokinetic determination in SD rats; type: in vivo; conditions: rat, po, gavage 10 mg/kg, plasma; for half-life: read-out: Half-life t1/2 (converted); for Cmax: read-out: Peak concentration Cmax; for Tmax: read-out: Time to peak Tmax
# Method: SD rats were used as test animals to study the pharmacokinetic behavior in rat plasma after oral administration of the compound example of the present disclosure at a dose of 10 mg/kg.
# Male SPF-grade SD rats, with body weight (200 ± 20) g.
# Drug preparation: The drug concentration was prepared as 1 mg/mL, and the preparation solvent was Tween80 + 0.5% MC (v/v 1:99).
# Male SPF-grade SD rats were administered by gavage after adaptive feeding for 3-4 days, with an administration dose of 10 mg/kg and an administration volume of 10 mL/kg.
# Blood samples were collected from rats before administration (0 h) and after administration at 0.5 h, 1 h, 1.5 h, 2 h, 3 h, 4 h, 6 h, 8 h, 10 h, 12 h, and 24 h. Blood, approximately 0.2 mL, was collected by retro-orbital puncture and placed into EDTA-K2 anticoagulant tubes with labels. After blood collection, the tubes were gently and completely inverted three times to mix with the anticoagulant. The samples were then immediately placed in an ice-water bath and centrifuged at 4500 rpm for 10 min at 4°C. After centrifugation, the plasma was promptly aliquoted into EP tubes with corresponding labels and stored in a -80°C freezer.
# After administration, 20 µL of rat plasma was taken and placed into a 96-deep-well plate pre-filled with 20 µL of internal standard working solution. Methanol (400 µL) as the precipitating agent was added, vortexed for 10 min, and centrifuged at 4000 rpm for 15 min. A supernatant of 200 µL was transferred into another 96-deep-well plate pre-filled with 200 µL of ultrapure water, vortexed for 5 min, and centrifuged at 4000 rpm for 3 min. A supernatant of 5 µL was taken for LC-MS/MS analysis of plasma drug concentration.
# The main pharmacokinetic parameters were calculated by WinNonlin 7.0, and the pharmacokinetic experimental results of rats are shown in Table 4 below. Table 4: Pharmacokinetic experimental results of rats
SMILES,inhibition at 30 µM (Nav1.1) [%],inhibition at 30 µM (Nav1.3) [%],inhibition at 30 µM (Nav1.4) [%],"inhibition at 30 µM (Nav1.5; human, cho/hek293 cells) [%]","AUC(0-t) at 24 h ([1]; in vivo, read-out: Area under the curve AUC0-t) [µg·h/mL]",half-life ([1]; in vivo) [min],Cmax ([1]; in vivo) [µg/mL],Tmax ([1]; in vivo) [min],inhibition at 30 µM (Nav1.5; cho/hek293 cells) [%],AUC(0-t) ([1]; read-out: Area under the curve AUC0-t) [µg·h/mL],half-life [1] [min],Cmax [1] [µg/mL],Tmax [1] [min],inhibition at 30 µM (Nav1.5; human) [%],"AUC(0-t) ([1]; male, read-out: Area under the curve AUC0-t) [µg·h/mL]",half-life ([1]; male) [min],Cmax ([1]; male) [µg/mL],Tmax ([1]; male) [min]
COCCOc1c([C@H]2[C@H](C(=O)Nc3ccc(F)c(C(=N)NO)c3)O[C@@](C)(C(F)(F)F)[C@H]2C)ccc(F)c1F [Example 10],28.4,28.6,75.4,51.7,4.65 ± 1.6,96 ± 16.2,1.24 ± 0.326,52.8 ± 15,,,,,,,,,,
C[C@H]1[C@@H](c2ccc(F)c(F)c2OC2COC2)[C@H](C(=O)Nc2ccc(F)c(C(=N)NO)c2)O[C@@]1(C)C(F)(F)F [Example 11],1.96,21.7,8.45,,,,,,9.11,2.08 ± 0.201,51 ± 4.2,1.04 ± 0.26,45 ± 30,,,,,
"COc1c([C@H]2[C@H](C(=O)Nc3ccnc(C(N)=O)c3)O[C@@](C)(C(F)(F)F)[C@H]2C)ccc(F)c1F [Reference compound, reference compound]",57.7,63.4,83.6,,,,,,,,,,,72.2,0.608 ± 0.362,79.2 ± 10.2,0.216 ± 0.124,37.8 ± 15
